In patent publication US9062078B2, “Substituted 7-azabicyles and their use as orexin receptor modulators” (priority 2013, dated 2015) one finds Ki data, which are given here for ten compounds.

Read-outs that look alike come from different tables or passages of the source.

One experiment deals with human orexin 1 receptor (Homo sapiens (Human), UniProt O43613). In words: Human orexin 1 receptor radioligand binding (competitive, [3H]-SB674042, CHO cell preparations). The note with it: human orexin 1 receptor, [3H]-SB674042 competition binding; read-out: hOX1 Ki (nm).
Sequence of human orexin 1 receptor (O43613 whole entry): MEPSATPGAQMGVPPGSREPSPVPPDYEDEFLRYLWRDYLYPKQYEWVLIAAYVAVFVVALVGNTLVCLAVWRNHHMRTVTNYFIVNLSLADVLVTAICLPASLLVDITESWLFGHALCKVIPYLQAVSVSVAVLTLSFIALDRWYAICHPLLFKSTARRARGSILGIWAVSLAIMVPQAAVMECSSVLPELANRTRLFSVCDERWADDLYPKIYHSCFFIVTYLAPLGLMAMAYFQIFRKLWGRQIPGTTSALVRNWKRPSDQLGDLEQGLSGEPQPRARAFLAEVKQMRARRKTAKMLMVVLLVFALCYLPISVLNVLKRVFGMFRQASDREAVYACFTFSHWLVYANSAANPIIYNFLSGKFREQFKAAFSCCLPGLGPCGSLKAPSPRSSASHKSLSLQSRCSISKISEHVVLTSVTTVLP
A further experiment has as its target rat orexin 1 receptor (Rattus norvegicus, UniProt P56718). In words: Rat orexin 1 receptor radioligand binding (competitive, [3H]-SB674042, HEK293 cell preparations).
For a further experiment, the target named is human orexin 2 receptor (Homo sapiens (Human), UniProt O43614). In words: Human orexin 2 receptor radioligand binding (competitive, [3H]-EMPA, HEK293 cell preparations).
Sequence of human orexin 2 receptor (O43614 whole entry): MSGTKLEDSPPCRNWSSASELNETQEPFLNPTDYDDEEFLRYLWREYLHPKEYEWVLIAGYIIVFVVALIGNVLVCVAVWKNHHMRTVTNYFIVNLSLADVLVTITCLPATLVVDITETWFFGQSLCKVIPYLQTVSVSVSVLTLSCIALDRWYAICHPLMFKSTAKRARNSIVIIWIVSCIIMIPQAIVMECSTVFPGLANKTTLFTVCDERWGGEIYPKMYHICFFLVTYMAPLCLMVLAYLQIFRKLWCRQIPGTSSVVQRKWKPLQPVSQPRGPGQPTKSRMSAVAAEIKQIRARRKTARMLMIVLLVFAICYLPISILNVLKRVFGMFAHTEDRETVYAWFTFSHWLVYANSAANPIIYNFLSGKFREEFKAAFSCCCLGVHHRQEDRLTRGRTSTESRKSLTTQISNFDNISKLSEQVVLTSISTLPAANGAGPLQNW
Where [1] appears, read: rat orexin 1 receptor, [3H]-SB674042 competition binding, read-out: rOX1 Ki (nm).
Where [2] appears, read: human orexin 2 receptor, [3H]-EMPA competition binding, read-out: hOX2 Ki (nm).

Take `O=C(c1cc(F)ccc1-n1nccn1)N1C2CCC1C(CNc1cccc(C(F)(F)F)n1)C2` (racemic) [Example 172, (±)-(5-fluoro-2-(2H-1,2,3-triazol-2-yl)phenyl)(2-(((6-(trifluoromethyl)pyridin-2-yl)amino)methyl)-7-azabicyclo[2.2.1]heptan-7-yl)methanone]: at human orexin 1 receptor, the Ki was determined as 686 nM.

For the compound `O=C(c1cc(F)ccc1-n1nccn1)N1C2CCC1C(CNc1nccc(C(F)(F)F)n1)C2` (racemic) [Example 171, (±)-(5-fluoro-2-(2H-1,2,3-triazol-2-yl)phenyl)(2-(((4-(trifluoromethyl)pyrimidin-2-yl)amino)methyl)-7-azabicyclo[2.2.1]heptan-7-yl)methanone], the inhibitory constant (Ki) on human orexin 1 receptor was 1930 nM.

Take `O=C(c1ccccc1-n1nccn1)N1C2CCC1C(Nc1ncc(C(F)(F)F)cn1)C2` (racemic) [Example 221, (±)-(2-(2H-1,2,3-triazol-2-yl)phenyl)(2-(5-(trifluoromethyl)pyrimidin-2-yl)amino)-7-azabicyclo[2.2.1]heptan-7-yl)methanone]: the inhibitory constant (Ki) on human orexin 1 receptor came out at 200 nM.

`Cc1coc(-c2ccc(C)nc2C(=O)N2[C@@H]3CC[C@H]2[C@H](COc2ccccn2)C3)n1` [Example 178, (6-methyl-3-(4-methyloxazol-2-yl)pyridin-2-yl)((1S,2R,4R)-2-((pyridin-2-yloxy)methyl)-7-azabicyclo[2.2.1]heptan-7-yl)methanone]: the Ki at rat orexin 1 receptor (setting [1]) was 964 nM; at human orexin 2 receptor (setting [2]) it was above 10000 nM.

For the compound `Cc1ccc(-c2ncco2)c(C(=O)N2C3CCC2C(COc2ncc(F)cn2)C3)n1` (racemic) [Example 100, (±)-(2-(((5-fluoropyrimidin-2-yl)oxy)methyl)-7-azabicyclo[2.2.1]heptan-7-yl)(6-methyl-3-(oxazol-2-yl)pyridin-2-yl)methanone], the Ki at rat orexin 1 receptor (setting [1]) was 950 nM; on human orexin 2 receptor (setting [2]), 1800 nM.

As for `O=C(c1cccc(F)c1I)N1[C@@H]2CC[C@H]1[C@H](Nc1ncc(C(F)(F)F)cn1)C2` [Example 277, (3-fluoro-2-iodophenyl)((1S,2R,4R)-2-((5-(trifluoromethyl)pyrimidin-2-yl)amino)-7-azabicyclo[2.2.1]heptan-7-yl)methanone], the Ki at rat orexin 1 receptor (setting [1]) came out at 457 nM; on human orexin 2 receptor (setting [2]), 7400 nM.

For the compound `CCOc1ccc(C)nc1C(=O)N1C2CCC1C(COc1ccc(Br)cn1)C2` (racemic) [Example 51, (±)-(2-(((5-bromopyridin-2-yl)oxy)methyl)-7-azabicyclo[2.2.1]heptan-7-yl)(3-ethoxy-6-methylpyridin-2-yl)methanone], the figures for the Ki on rat orexin 1 receptor (rOX1 Ki (nm)) and at human orexin 2 receptor (hOX2 Ki (nm)) were 974 nM and 1800 nM, respectively.

`Cc1ccc(C(=O)N2C3CCC2C(Nc2ccc(C(F)(F)F)cn2)C3)c(-n2ccnn2)n1` (racemic) [Example 190, (±)-(6-methyl-2-(1H-1,2,3-triazol-1-yl)pyridin-3-yl)(2-(5-(trifluoromethyl)pyridin-2-yl)amino)-7-azabicyclo[2.2.1]heptan-7-yl)methanone]: the results for the Ki at rat orexin 1 receptor (rOX1 Ki (nm)) and at human orexin 2 receptor (setting [2]) were 589 nM and 1200 nM, respectively.

`O=C(c1cccc(F)c1-c1ccncc1)N1[C@@H]2CC[C@H]1[C@H](Nc1cnc(C(F)(F)F)cn1)C2` [Example 268, (3-fluoro-2-(pyridin-4-yl)phenyl)((1S,2R,4R)-2-((5-(trifluoromethyl)pyrazin-2-yl)amino)-7-azabicyclo[2.2.1]heptan-7-yl)methanone]: the Ki stood at 450 nM on rat orexin 1 receptor (setting [1]) and 3700 nM at human orexin 2 receptor (setting [2]).

Consider `COc1cccc(-c2c(C)cnn2C)c1C(=O)N1[C@@H]2CC[C@H]1[C@H](Nc1cnc(C(F)(F)F)cn1)C2` [Example 292, (2-(1,4-dimethyl-1H-pyrazol-5-yl)-6-methoxyphenyl)((1S,2R,4R)-2-((5-(trifluoromethyl)pyrazin-2-yl)amino)-7-azabicyclo[2.2.1]heptan-7-yl)methanone], for which the inhibition constant (Ki) on rat orexin 1 receptor (setting [1]) and on human orexin 2 receptor (setting [2]) was above 10000 nM in each case.
